Results as given in patent US20240059685A1, “PIEZO1 AGONISTS FOR THE PROMOTION OF BONE FORMATION” (BIOVENTURES, LLC, priority 2019, published 2024).

Test system: C57BL/6J mice
Assay: In vivo bone mass evaluation by μCT and body weight after 2 weeks of administration
Conditions: 4-month-old female C57BL/6J mice, 5 μmol/kg intraperitoneally, 5 days per week for 2 weeks
Protocol: To quantify cancellous bone formation, we injected mice with calcein (20 mg/kg body weight) intraperitoneally 7 and 3 days before harvest. To quantify periosteal and endocortical bone formation, we injected mice with calcein (20 mg/kg body weight) and Alizarin Red (20 mg/kg body weight) 10 and 3 days before harvest. For gene expression, we injected Yoda1 into 4-month-old female C57BL/6J mice one time and harvested tibiae 4 hours later for RNA extraction. For bone mass evaluation, we injected Yoda1 into 4-month-old female C57BL/6J mice 5 consecutive days per week for 2 weeks (day 1-5 and day 8-12) and harvested the mice at day 15 for analysis. Yoda1 (Sigma, St. Louis, MO) was dissolved in DMSO at 40 mM as a stock, diluted in 5% ethanol, and injected intraperitoneally at 5 μmol/kg body weight. Mice were rank-ordered by body weight and then assigned to Veh or Yoda1 groups to give identical group means. All investigators involved in data collection were blinded as to the genotype and group of the mice.
Skeletal analysis. Tibial X-rays were obtained using an UltraFocus X-ray machine (Faxitron Bioptics, Tucson, Arizona) and BMD of the lumbar spine and femur were measured by dual-energy X-ray absorptiometry using a PIXImus Densitometer (GE-Lunar Corp.) Three dimensional bone volume and architecture of L4 vertebra, femur, and tibia were measured by μCT (model μCT40, Scanco Medical, Wayne, PA). The femur, vertebrae (L4), or tibia, were cleaned of soft tissues and fixed in 10% Millonig's formalin for 24 hours. Bone were then gradually dehydrated into 100% ethanol. Bone samples were loaded into a 12.3 mm diameter scanning tube and images acquired in the μCT40. The scans were integrated into 3D voxel images (1024×1024 pixel matrices for each individual planar stack) and a Gaussian filter (sigma=0.8, support=1) was used to reduce signal noise. Scanco Eval Program v.6.0 was used for measuring bone volume. A threshold of 220 mg/cm^3 was applied to all scans at medium resolution (E=55 kVp, I=145 μA, integration time=200 ms) for trabecular bone measurements. The cortical bone and the primary spongiosa were manually excluded from the analysis. Trabecular bone measurements at the distal femur were made on 151 slices beginning 8-10 slices away from the growth plate and proceeding proximally. […] All trabecular measurements were made by drawing contours every 10 to 20 slices and voxel counting was used for bone volume per tissue volume and sphere filling distance transformation indices, without pre-assumptions about the bone shape as a rod or plate for trabecular microarchitecture. Femoral cortical thickness, periosteal circumference, and endocortical circumference were measured at the mid-diaphysis. For tibial cortical thickness, we analyzed 18 slices 5 mm proximal from the distal tibiofibular junction. Vertebral cortical bone thickness was determined on the ventral cortical wall using contours of cross-sectional images, drawn to exclude trabecular bone. Cortical analysis were measured at a threshold of 260 mg/cm^3. Calibration and quality control were performed weekly using five density standards and spatial resolution was verified monthly using a tungsten wire rod. We based beam-hardening correction on the calibration records. Corrections for 200 mg hydroxyapatite were made for all energies.

Q: How did the body weight turn out when Clc1cccc(Cl)c1CSc1nnc(-c2cnccn2)s1 [Yoda1] was run?
A: did not alter

Q: And the “cancellous bone mass in the distal femur” value?
A: increased

Q: What about the “cancellous bone volume in vertebrae” value of the same molecule?
A: did not detect changes

Q: And the “cortical thickness in the distal femur” value?
A: increased

Q: And the “cortical thickness in the vertebra” value?
A: increased
